Results: patent US11931366B2, “Compositions and methods of use thereof for treatment of proteinopathies” (priority 2018, dated 2024)
“Also recorded” adds a separate entry of the source. Read-outs that look alike come from different tables or passages of the source.

Columns and labels:
[1] = system: transgenic C. elegans expressing human mutant alpha-1-antitrypsin gene fused to GFP; assay: High-throughput phenotypic drug screen and dose response in the C. elegans model of ATD (mutant AT accumulation); assay type: in vivo; conditions: for reduction of mutant AT accumulation: 8-point dose response curves, FIG. 4B, 5, 11; for hit in high-throughput screening campaign: C. elegans model of ATD, FIG. 4A
[2] = system: autophagy pathway (LC3, p62); assay: Autophagy markers (LC3-II/I, p62) following fluphenazine treatment; assay type: in vivo; conditions: for autophagic flux: liver
[3] = system: mutant AT protein accumulation in liver; assay type: in vivo, mouse; conditions: vs control (CTR)
[4] = following fluphenazine treatment

| Compound | reduction of mutant AT accumulation [1] | hit in high-throughput screening campaign [1] | also measured |
| --- | --- | --- | --- |
| FC(F)(F)c1ccc(SCCCN2CCN(c3cccc(Cl)c3)CC2)nc1 [AW00794, Piperazine, 1-(3-chlorophenyl)-4-[3-[[5-(trifluoromethyl)-2-pyridinyl]thio]propyl]-] | reduce mutant AT protein accumulation; also recorded: reduces AT accumulation |  |  |
| OC(CNCc1ccc(Cl)cc1)CSc1ccccc1 (stereo not drawn) [RDR 03172] | reduce mutant AT protein accumulation; also recorded: reducing AT accumulations in a dose-dependent manner |  |  |
| OCCN1CCN(CCCN2c3ccccc3Sc3ccc(C(F)(F)F)cc32)CC1 [fluphenazine] | dose-dependent reduction of mutant AT; also recorded: reduce mutant AT accumulation in a dose-dependent manner | hit compounds | LC3-II/I ratio [2, 4]: increase; p62 [2, 4]: reduction; autophagic flux [2]: enhancing autophagic flux; autophagic flux ([2]; listed as Fluphenazine): enhances autophagic flux; Sirius red staining (collagen deposition, liver fibrosis) ([3]; mouse liver sections): significantly reduced; accumulation of mutant AT protein (purple dots) in liver sections ([3]; transgenic mouse model of ATD): significantly reduced accumulation of mutant AT protein; percent area of purple dots (quantification of AT accumulations) ([3]; transgenic mouse model of ATD): significantly reduced; accumulation of mutant AT protein (purple dots) in liver sections ([3]; transgenic mouse model of ATD, listed as Fluphenazine): reduces mutant AT accumulation; reduction of mutant AT accumulation ([1]; listed as Fluphenazine): reduce misfolded AT protein accumulation in a dose and time-dependent manner |
| OCCN1CCN(CCCN2c3ccccc3Sc3ccc(Cl)cc32)CC1 [perphenazine] | reduce mutant AT accumulation in a dose-dependent manner | hit compounds |  |
| CN1CCN(CCCN2c3ccccc3Sc3ccc(Cl)cc32)CC1 [prochlorperazine] | reduce mutant AT accumulation in a dose-dependent manner | hit compounds |  |
| CCSc1ccc2c(c1)N(CCCN1CCN(C)CC1)c1ccccc1S2 [thiethylperazine] | reduce mutant AT accumulation in a dose-dependent manner |  |  |
| CSc1ccc2c(c1)N(CCC1CCCCN1C)c1ccccc1S2 (stereo not drawn) [thioridazine] | reduce mutant AT accumulation in a dose-dependent manner |  |  |
| CN1CCN(CCCN2c3ccccc3Sc3ccc(C(F)(F)F)cc32)CC1 [trifluoperazine] | reduce mutant AT accumulation in a dose-dependent manner | hit compounds |  |
